Experimental data reported in patent EP1891948A1, “Treatment of neurological and neuropsychological disorders” (Probiodrug AG, priority 2000, dated 2002).

Tested on: WistarF/Han (WF) rats
Experiment: Response to novelty (open field test) after i.c.v. treatment
Format: in vivo
Method: Animals. Male WistarF/Han (WF) rats (Central Animal Laboratory, Hannover Medical School, Hannover, Germany, see http://www.mh-hannover.de/institut/tierlabor/wf.htm for details), weighing 350-390g, were housed in a sound-proof, temperature controlled (24.0±0.5°C) room under specific pathogen free conditions with a 12/12h dark/light cycle (lights on at 07.00 with illumination level of 80 Lux). Food (Altromin lab chow pellets) and tap water were available ad libitum. Under ketamine/xylasine (100/5 mg/kg, i.p.) anesthesia, the rats were fixed in a Kopf stereotaxic frame and implanted with cannulae (Plastic One, Inc., Roanoke, VA, USA) above the lateral ventricle. All research and animal care procedures were approved by the Lower Saxony district government (Hannover, Germany) and followed principles described in the European Community's Council Directive of 24 November 1986 (86/609/EEC).
Surgery and i.c.v. application. For surgery, rats were anesthetized and prepared with i.c.v. cannulaes (coordinates: A:-0.7mm caudal, L:1.4mm lateral to bregma; and V:3.2mm ventral to the skull surface; tooth bar +3.0 above ear bars) using standard stereotaxic procedures as described in detail elsewhere (von Hörsten et al., 1998a,b,c). […]
Response to novelty (Open field test). […] Spontaneous activity during a single continuous test session of 15min was recorded using a video path analyzer system (E61-21 Video Path Analyser system, Coulboum instruments, PA, U.S.A.). […] Furthermore, the total incidence of fecal boli was counted after each session and the incidence and duration (sec) of grooming behavior was simultaneously recorded from a video monitor by a person blind to the treatment of the animals (von Hörsten et al., 1998c).
Statistical analysis. For statistical analysis, behavioral raw data from every test minute were analyzed by two-way analyses of variance (ANOVA) for repeated measures (factors: treatment and time as a repeated measurement). Data obtained as totals from a session were analyzed by one-way (factor: treatment) ANOVA. […]

CCC(C)C(N)C(=O)N1CCSC1 (stereo not drawn) [isoleucyl thiazolidine]
dosage already effective on time spent close to the wall (Fig. 5): 50 pmol | time spent close to the wall (sum of four consecutive minutes of open field testing, Fig. 5): dose-dependent reduction | activity in the open field (distance traveled) (wide range of dosages (0.05nmol, 5nmol, 500nmol), 60 min before test, Fig. 4): no effect
